From ChEMBL document CHEMBL4699396, “Macrocyclic peptidomimetics as inhibitors of insulin-regulated aminopeptidase (IRAP)” (RSC Med Chem, 2020)

System: Insulin-regulated aminopeptidase (Homo sapiens)
Experiment: Binding affinity to recombinant full length human IRAP expressed in HEK293T cells assessed as binding free energy

deltaG [kcal/mol] | SMILES
-12.4 | N[C@H]1CC/C=C/CC[C@@H](C(=O)NCc2ccccc2CC(=O)O)NC(=O)C[C@H](Cc2ccc(O)cc2)NC1=O
-10.7 | N[C@H]1CC/C=C\CC[C@@H](C(=O)NCc2ccccc2CC(=O)O)NC(=O)C[C@H](Cc2ccc(O)cc2)NC1=O
